Experimental data taken from US9833497B2, “Human originated EGF domain proteins and use of the same” (CHENGDU SOURCEBIO LIMITED-LIABILITY COMPANY, priority 2013, dated 2017).

Legend:
Assay type in all cases: cell-based
[1] = system: Moraxella catarrhalis; assay: MIC against Gram-negative bacteria: Moraxella catarrhalis; conditions: for MIC: M. catarrhalis
In short: (§1)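 LB broth cultures at McFarland 0.5, spun down, resuspended, diluted to 5×10^5 CFU/mL final. Two-fold serial dilutions of purified human EGF domain proteins, triplicate. 37° C, 175 rpm shaking. Endpoint: no visible growth.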

[2] = system: Proteus mirabilis; assay: MIC against Gram-negative bacteria: Proteus mirabilis; conditions: for MIC: P. mirabilis
In short: as §1

[3] = system: Citrobacter diversus; assay: MIC against Gram-negative bacteria: Citrobacter diversus; conditions: for MIC: C. diversus
In short: as §1

[4] = system: Enterobacter cloacae; assay: MIC against Gram-negative bacteria: Enterobacter cloacae; conditions: for MIC: E. cloacae
In short: as §1

[5] = system: Pseudomonas aeruginosa; assay: MIC against Gram-negative bacteria: Pseudomonas aeruginosa; conditions: for MIC: P. aeruginosa
In short: as §1

[6] = system: Serratia marcescens; assay: MIC against Gram-negative bacteria: Serratia marcescens; conditions: for MIC: S. marcescens
In short: as §1

[7] = system: E. coli DH5α; assay: Antibacterial activity: MIC and growth curve against E. coli DH5α in 96-well plate; conditions: minimal inhibitory concentration against E. coli DH5α; 96-well plate, 5×10^5 CFU/mL, 37° C., judged after 8 h
In short: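 Log-phase DH5α (OD600 about 0.5, 37° C, 185 rpm in LB) was pelleted, resuspended in fresh LB and seeded at 5×10^5 CFU/mL with recombinant protein at 50, 25 and 12.5 μg/mL (two-fold series), in triplicate. Plates were shaken at 175 rpm, 37° C, and OD600 was read every 30 min. MIC was the lowest concentration with no growth.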

[8] = system: Klebsiella pneumonia; assay: MIC against Gram-negative bacteria: Klebsiella pneumonia; conditions: for MIC: K. pneumonia
In short: as §1

[9] = system: E. coli BL21; assay: MIC against Gram-negative bacteria: E. coli BL21
In short: as §1

[10] = system: Aeromonas hydrophila; assay: MIC against Gram-negative bacteria: Aeromonas hydrophila; conditions: for MIC: A. hydrophila
In short: as §1

[11] = system: Proteus vulgaris; assay: MIC against Gram-negative bacteria: Proteus vulgaris; conditions: for MIC: P. vulgaris
In short: as §1

[12] = 10 h cultivation at 37° C., 5×10^5 CFU/mL, two-fold serial dilution
[13] = E. coli BL21, 10 h cultivation at 37° C.
[14] = 96-well plate, 5×10^5 CFU/mL, 37° C., 10 h

## PRT1403 (SVVECPRNCHGNGECVSGTCHCFPGFLGPDCS; listed as Homo sapiens)
[1]; Moraxella catarrhalis, 5×10^5 CFU/mL, 10 h cultivation at 37° C.
  MIC against M. catarrhalis: 12.5 µg/mL
[2]; Proteus mirabilis, 5×10^5 CFU/mL, 10 h cultivation at 37° C.
  MIC against P. mirabilis: 50 µg/mL
[3]; Citrobacter diversus, 5×10^5 CFU/mL, 10 h cultivation at 37° C.
  MIC against C. diversus: 50 µg/mL
[4]; Enterobacter cloacae, 5×10^5 CFU/mL, 10 h cultivation at 37° C.
  MIC against E. cloacae: 25 µg/mL
[5]; Pseudomonas aeruginosa, 5×10^5 CFU/mL, 10 h cultivation at 37° C.
  MIC against P. aeruginosa: 50 µg/mL
[6]; Serratia marcescens, 5×10^5 CFU/mL, 10 h cultivation at 37° C.
  MIC against S. marcescens: 50 µg/mL
[7]
  MIC: 50 µg/mL
[8]; Klebsiella pneumonia, 5×10^5 CFU/mL, 10 h cultivation at 37° C.
  MIC against K. pneumonia: 12.5 µg/mL
[9]; E. coli BL21, 5×10^5 CFU/mL, 10 h cultivation at 37° C.
  MIC against E. coli BL21: 12.5 µg/mL
[10]; Aeromonas hydrophila, 5×10^5 CFU/mL, 10 h cultivation at 37° C.
  MIC against A. hydrophila: 25 µg/mL
[11]; Proteus vulgaris, 5×10^5 CFU/mL, 10 h cultivation at 37° C.
  MIC against P. vulgaris: 12.5 µg/mL

## PRT1185 (REFQCDAYTCSNGGTCYDSGDTFRCACPPGWKGSTCA; listed as Homo sapiens)
[1]; [12]
  MIC M. catarrhalis: 50 µg/mL
[2]; [12]
  MIC P. mirabilis: 12.5 µg/mL
[3]; [12]
  MIC C. diversus: 12.5 µg/mL
[4]; [12]
  MIC E. cloacae: 12.5 µg/mL
[5]; [12]
  MIC P. aeruginosa: 25 µg/mL
[6]; [12]
  MIC S. marcescens: 12.5 µg/mL
[7]
  MIC: 50 µg/mL
[8]; [12]
  MIC K. pneumonia: 50 µg/mL
[9]; [12]
  MIC E. coli BL21: 12.5 µg/mL
[10]; [12]
  MIC A. hydrophila: 50 µg/mL
[11]; [12]
  MIC P. vulgaris: 50 µg/mL

## PRT987 (NVDDCPGHRCLNGGTCVDGVNTYNCQCPPEWTGQFCT; listed as Homo sapiens)
[1]; 10 h cultivation at 37° C.
  MIC: 12.5 µg/mL
[2]; 10 h cultivation at 37° C.
  MIC: 50 µg/mL
[3]; 10 h cultivation at 37° C.
  MIC: 50 µg/mL
[4]; 10 h cultivation at 37° C.
  MIC: 25 µg/mL
[5]; 10 h cultivation at 37° C.
  MIC: 25 µg/mL
[6]; 10 h cultivation at 37° C.
  MIC: 50 µg/mL
[7]
  MIC: 25 µg/mL
[8]; 10 h cultivation at 37° C.
  MIC: 50 µg/mL
[9]; [13]
  MIC: 12.5 µg/mL
[10]; 10 h cultivation at 37° C.
  MIC: 12.5 µg/mL
[11]; 10 h cultivation at 37° C.
  MIC: 12.5 µg/mL

## PRT721 (DIDECTEMPFVCSQKCENVIGSYICKCAPGYLREPDGKTCR; listed as Homo sapiens)
[1]; [14]
  MIC M. catarrhalis: 50 µg/mL
[2]; [14]
  MIC P. mirabilis: 12.5 µg/mL
[3]; [14]
  MIC C. diversus: 25 µg/mL
[4]; [14]
  MIC E. cloacae: 25 µg/mL
[5]; [14]
  MIC P. aeruginosa: 25 µg/mL
[6]; [14]
  MIC S. marcescens: 50 µg/mL
[7]
  MIC: 25 µg/mL
[8]; [14]
  MIC K. pneumonia: 50 µg/mL
[9]; [14]
  MIC E. coli BL21: 12.5 µg/mL
[10]; [14]
  MIC A. hydrophila: 12.5 µg/mL
[11]; [14]
  MIC P. vulgaris: 12.5 µg/mL

## PRT906 (LVHWCDSSPCKNGGKCWQTHTQYRCECPSGWTGLYCD; listed as Homo sapiens)
[1]; 10 h cultivation at 37° C.
  MIC: 50 µg/mL
[2]; 10 h cultivation at 37° C.
  MIC: 25 µg/mL
[3]; 10 h cultivation at 37° C.
  MIC: 25 µg/mL
[4]; 10 h cultivation at 37° C.
  MIC: 50 µg/mL
[5]; 10 h cultivation at 37° C.
  MIC: 12.5 µg/mL
[6]; 10 h cultivation at 37° C.
  MIC: 25 µg/mL
[7]
  MIC: 50 µg/mL
[8]; 10 h cultivation at 37° C.
  MIC: 25 µg/mL
[9]; [13]
  MIC: 25 µg/mL
[10]; 10 h cultivation at 37° C.
  MIC: 12.5 µg/mL
[11]; 10 h cultivation at 37° C.
  MIC: 12.5 µg/mL
